SMILES strings stand for the structures.

T1 sequence (P13569 with tags, fused parts or gaps DEL508-508): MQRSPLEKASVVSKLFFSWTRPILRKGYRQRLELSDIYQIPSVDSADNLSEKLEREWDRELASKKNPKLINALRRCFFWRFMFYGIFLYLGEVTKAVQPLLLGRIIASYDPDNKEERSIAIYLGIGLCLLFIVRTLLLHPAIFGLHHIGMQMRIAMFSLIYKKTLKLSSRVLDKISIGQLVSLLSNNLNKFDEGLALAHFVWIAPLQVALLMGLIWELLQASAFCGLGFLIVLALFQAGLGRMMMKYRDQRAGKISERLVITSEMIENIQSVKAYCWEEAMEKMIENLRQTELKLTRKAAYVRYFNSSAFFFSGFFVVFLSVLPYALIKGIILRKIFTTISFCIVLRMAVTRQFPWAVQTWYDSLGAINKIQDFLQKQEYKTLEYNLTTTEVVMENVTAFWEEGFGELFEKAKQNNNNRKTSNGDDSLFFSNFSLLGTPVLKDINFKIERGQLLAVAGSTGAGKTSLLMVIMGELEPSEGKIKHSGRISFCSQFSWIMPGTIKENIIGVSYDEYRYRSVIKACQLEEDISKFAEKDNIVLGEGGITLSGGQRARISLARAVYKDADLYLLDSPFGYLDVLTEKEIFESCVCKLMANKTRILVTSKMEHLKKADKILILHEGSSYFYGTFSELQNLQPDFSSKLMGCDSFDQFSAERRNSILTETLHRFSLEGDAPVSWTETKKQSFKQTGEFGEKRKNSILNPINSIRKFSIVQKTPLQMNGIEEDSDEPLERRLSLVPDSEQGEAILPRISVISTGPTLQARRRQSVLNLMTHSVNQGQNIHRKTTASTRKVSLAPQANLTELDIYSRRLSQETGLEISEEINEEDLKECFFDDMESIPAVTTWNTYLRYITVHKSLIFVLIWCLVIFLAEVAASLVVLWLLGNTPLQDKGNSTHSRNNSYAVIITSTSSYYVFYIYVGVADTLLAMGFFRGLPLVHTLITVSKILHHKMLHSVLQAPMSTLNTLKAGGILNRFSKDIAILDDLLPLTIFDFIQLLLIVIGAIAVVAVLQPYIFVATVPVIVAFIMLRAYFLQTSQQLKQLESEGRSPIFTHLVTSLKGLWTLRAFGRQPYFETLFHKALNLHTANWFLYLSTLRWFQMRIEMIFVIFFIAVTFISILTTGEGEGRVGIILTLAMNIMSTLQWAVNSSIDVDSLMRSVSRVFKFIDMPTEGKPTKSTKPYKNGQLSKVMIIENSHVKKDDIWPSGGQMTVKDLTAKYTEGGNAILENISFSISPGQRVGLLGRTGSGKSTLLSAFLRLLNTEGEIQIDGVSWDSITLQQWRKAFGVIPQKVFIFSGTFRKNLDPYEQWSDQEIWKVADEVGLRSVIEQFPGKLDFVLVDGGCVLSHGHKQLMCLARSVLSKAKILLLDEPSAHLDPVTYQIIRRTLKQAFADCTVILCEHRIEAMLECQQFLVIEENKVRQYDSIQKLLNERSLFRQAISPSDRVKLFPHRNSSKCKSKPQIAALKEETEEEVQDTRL

The first assay addresses T1, CFTR (F508del/MF-HBE cells) (Homo sapiens, UniProt P13569, DEL508-508).
T1 construct: human bronchial epithelial (HBE) cells derived from CF subjects heterozygous for F508del and a minimal function CFTR mutation (F508del/MF-HBE); endogenous in cells; host or cells: Primary human bronchial epithelial cells from CF subjects (F508del/MF genotype), differentiated at an air-liquid interface
Nature of the assay: Ussing chamber assay of CFTR-mediated short-circuit currents, Assay C (0.026 μM to 25 μM, 6 concentrations). The note with it: with 33 nM potentiator and 18 μM Tezacaftor, 18-24 hours, 20% human serum, read-out: C Max activity (%). Format: cell-based. The gist of the method:
(§1)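 F508del/MF-HBE cells grown at air-liquid interface were incubated 18-24 h at 37 °C in 20% human serum with correctors plus 18 μM tezacaftor and a fixed partner compound (33 nM for concentration series, 44 nM at 1 μM). ISC was read at 0 mV after 20 μM forskolin, minus the post-inhibitor current.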
Take `Cc1cccc(C)c1-c1nc2nc(c1C)OC[C@@H](C[C@H]1CCCCO1)N(Cc1cnc3cc(C4CC4)n(C)c3n1)C(=O)c1cccc(c1)S(=O)(=O)N2` [Compound I-193]: the Emax is more than 60%.
Still for that read-out and setting: the same measure for `Cc1cccc(C)c1-c1nc2nc(c1C)OC[C@@H](CC1(C)CC1)N(Cc1cnc3cc(C(C)(C)C)n(C)c3n1)C(=O)c1cccc(c1)S(=O)(=O)N2` [Compound I-222]: more than 60%.

Still in this assay, the particulars now being: with 33 nM potentiator and 18 μM Tezacaftor, 20% human serum.
Regarding `COc1c2nc(nc1-c1c(C)cccc1C)NS(=O)(=O)c1cccc(c1)C(=O)N(Cc1cnc3oc(C(C)(C)C)cc3n1)[C@H](CC1(C)CC1)CO2` [IV-12], the EC50 (as a rule, the concentration giving half of the maximal effect) lay within 1 to 3 µM.
For the molecule `Cc1cccc(C)c1-c1cc2nc(n1)NS(=O)(=O)c1cccc(c1)C(=O)N(Cc1cnc3oc(C4CCOCC4)cc3n1)[C@H](CC1(C)CC1)CO2` [IV-27], the EC50 lay within 3 to 30 µM.
For `Cc1cccc(C)c1-c1cc2nc(n1)NS(=O)(=O)c1cccc(c1)C(=O)N(Cc1cnc3oc(C4(C)CC4)cc3n1)[C@@H](C(C(C)C)C(C)C)CO2` (stereo in doubt) [IV-31], the EC50 is less than 1 µM.
On to `Cc1cccc(CC(C)C)c1-c1nc2nc(c1C)OC[C@@H](CC1(C)CC1)N(Cc1cnc3oc(C(C)(C)C)cc3n1)C(=O)c1cccc(c1)S(=O)(=O)N2` (atropisomer, axis not shown) [IV-45], for which the 50% effective concentration (EC50) was 1 to 3 µM.
With `Cc1cccc(C)c1-c1cc2nc(n1)NS(=O)(=O)c1cccc(c1)C(=O)N(Cc1cnc3oc(-c4ccnn4C)cc3n1)[C@H](CC1(C)CC1)CO2` [IV-30], the EC50 was in the range of 3 to 30 µM.
In the case of `Cc1cccc(C)c1-c1cc2nc(n1)NS(=O)(=O)c1cccc(c1)C(=O)N(Cc1cnc3oc(C(C)(C)C)cc3n1)[C@@H](C(C1CCC1)C1CCC1)CO2` [IV-33], the EC50 was 3 to 30 µM.
For the molecule `Cc1cccc(CC(C)C)c1-c1nc2nc(c1C)OC[C@@H](CC1(C)CC1)N(Cc1cnc3cc(C(C)(C)C)n(C)c3n1)C(=O)c1cccc(c1)S(=O)(=O)N2` (atropisomer, axis not shown) [IV-44], the EC50 was 1 to 3 µM.
`Cc1cccc(CC(C)C)c1-c1nc2nc(c1C)OC[C@@H](CC1(C)CC1)N(Cc1cnc3oc(C(C)C)cc3n1)C(=O)c1cccc(c1)S(=O)(=O)N2` (atropisomer, axis not shown) [IV-46]: the EC50 is less than 1 µM.
On to `CCC(C)(C)C[C@H]1COc2cc(-c3c(C)cccc3C)nc(n2)NS(=O)(=O)c2cccc(c2)C(=O)N1Cc1cnc2oc(C3CC3)cc2n1` [IV-34], for which the EC50 lay in the range of 1 to 3 µM.
Take `Cc1cccc(COC(C)C)c1-c1nc2nc(c1C)OC[C@@H](CC(C)(C)C)N(Cc1cnc3oc(C4CC4)cc3n1)C(=O)c1cccc(c1)S(=O)(=O)N2` [IV-39]: the EC50 lay in the range of 1 to 3 µM.
`COc1c2nc(nc1-c1c(C)cccc1C)NS(=O)(=O)c1cccc(c1)C(=O)N(Cc1cnc3cc(C4(C)CC4)n(C)c3n1)[C@H](COC(C)C)CO2` [IV-11]: the EC50 is less than 1 µM.
Regarding `Cc1cccc(CC(C)C)c1-c1nc2nc(c1C)OC[C@@H](CC(C)(C)C)N(Cc1cnc3cc(C4(C)CC4)n(C)c3n1)C(=O)c1cccc(c1)S(=O)(=O)N2` (atropisomer, axis not shown) [IV-19], the EC50 is less than 1 µM.
In the case of `Cc1cccc(C)c1-c1nc2nc(c1C)OC[C@@H](C[C@H]1CCCCO1)N(Cc1cnc3cc(C4CC4)n(C)c3n1)C(=O)c1cccc(c1)S(=O)(=O)N2` [Compound I-193], the EC50 was less than 1 µM.
As for `Cc1cccc(C)c1-c1nc2nc(c1C)OC[C@@H](CC1(C)CC1)N(Cc1cnc3cc(C(C)(C)C)n(C)c3n1)C(=O)c1cccc(c1)S(=O)(=O)N2` [Compound I-222], the EC50 was less than 1 µM.
Turning to `Cc1cccc(C)c1-c1cc2nc(n1)NS(=O)(=O)c1cccc(c1)C(=O)N(Cc1ncc3cc(C(C)(C)C)n(C)c3n1)[C@H](CC(C)(C)C)CO2` [IV-38], the EC50 was in the range of 1 to 3 µM.

The same assay, now with this note: with 33 nM potentiator and 18 μM Tezacaftor, 20% human serum, read-out: C Max activity (%).
Consider `COc1c2nc(nc1-c1c(C)cccc1C)NS(=O)(=O)c1cccc(c1)C(=O)N(Cc1cnc3oc(C(C)(C)C)cc3n1)[C@H](CC1(C)CC1)CO2` [IV-12], for which the Emax is more than 60%.
`Cc1cccc(C)c1-c1cc2nc(n1)NS(=O)(=O)c1cccc(c1)C(=O)N(Cc1cnc3oc(C4CCOCC4)cc3n1)[C@H](CC1(C)CC1)CO2` [IV-27]: the Emax was more than 60%.
As to `Cc1cccc(C)c1-c1cc2nc(n1)NS(=O)(=O)c1cccc(c1)C(=O)N(Cc1cnc3oc(C4(C)CC4)cc3n1)[C@@H](C(C(C)C)C(C)C)CO2` (stereo in doubt) [IV-31], the Emax was more than 60%.
Take `Cc1cccc(CC(C)C)c1-c1nc2nc(c1C)OC[C@@H](CC1(C)CC1)N(Cc1cnc3oc(C(C)(C)C)cc3n1)C(=O)c1cccc(c1)S(=O)(=O)N2` (atropisomer, axis not shown) [IV-45]: the Emax was more than 60%.
Take `Cc1cccc(C)c1-c1cc2nc(n1)NS(=O)(=O)c1cccc(c1)C(=O)N(Cc1cnc3oc(-c4ccnn4C)cc3n1)[C@H](CC1(C)CC1)CO2` [IV-30]: the Emax was more than 60%.
For the molecule `Cc1cccc(C)c1-c1cc2nc(n1)NS(=O)(=O)c1cccc(c1)C(=O)N(Cc1cnc3oc(C(C)(C)C)cc3n1)[C@@H](C(C1CCC1)C1CCC1)CO2` [IV-33], the Emax is more than 60%.
With `Cc1cccc(CC(C)C)c1-c1nc2nc(c1C)OC[C@@H](CC1(C)CC1)N(Cc1cnc3cc(C(C)(C)C)n(C)c3n1)C(=O)c1cccc(c1)S(=O)(=O)N2` (atropisomer, axis not shown) [IV-44], the Emax was more than 60%.
Turning to `Cc1cccc(CC(C)C)c1-c1nc2nc(c1C)OC[C@@H](CC1(C)CC1)N(Cc1cnc3oc(C(C)C)cc3n1)C(=O)c1cccc(c1)S(=O)(=O)N2` (atropisomer, axis not shown) [IV-46], the Emax was more than 60%.
Take `CCC(C)(C)C[C@H]1COc2cc(-c3c(C)cccc3C)nc(n2)NS(=O)(=O)c2cccc(c2)C(=O)N1Cc1cnc2oc(C3CC3)cc2n1` [IV-34]: the Emax was more than 60%.
Still for that read-out and setting: the same measure for `Cc1cccc(COC(C)C)c1-c1nc2nc(c1C)OC[C@@H](CC(C)(C)C)N(Cc1cnc3oc(C4CC4)cc3n1)C(=O)c1cccc(c1)S(=O)(=O)N2` [IV-39]: more than 60%; for `COc1c2nc(nc1-c1c(C)cccc1C)NS(=O)(=O)c1cccc(c1)C(=O)N(Cc1cnc3cc(C4(C)CC4)n(C)c3n1)[C@H](COC(C)C)CO2` [IV-11]: more than 60%.
In the case of `Cc1cccc(CC(C)C)c1-c1nc2nc(c1C)OC[C@@H](CC(C)(C)C)N(Cc1cnc3cc(C4(C)CC4)n(C)c3n1)C(=O)c1cccc(c1)S(=O)(=O)N2` (atropisomer, axis not shown) [IV-19], the Emax was more than 60%.
`Cc1cccc(C)c1-c1cc2nc(n1)NS(=O)(=O)c1cccc(c1)C(=O)N(Cc1ncc3cc(C(C)(C)C)n(C)c3n1)[C@H](CC(C)(C)C)CO2` [IV-38]: the Emax is more than 60%.

The next assay deals with T1, CFTR (F508del/MF-HBE cells). Nature of the assay: Ussing chamber assay of CFTR-mediated short-circuit currents, Assay D (single concentration of 1 μM). It is filed as cell-based. Conditions: with 44 nM potentiator and 18 μM Tezacaftor, 18-24 hours, 20% human serum. The gist of the method:
as §1
Turning to `Cc1cccc(C)c1-c1nc2nc(c1C)OC[C@@H](C[C@H]1CCCCO1)N(Cc1cnc3cc(C4CC4)n(C)c3n1)C(=O)c1cccc(c1)S(=O)(=O)N2` [Compound I-193], the “D activity at 1 μM (%)” value was “+++ (+++ is >60%)”.
In the case of `Cc1cccc(C)c1-c1nc2nc(c1C)OC[C@@H](CC1(C)CC1)N(Cc1cnc3cc(C(C)(C)C)n(C)c3n1)C(=O)c1cccc(c1)S(=O)(=O)N2` [Compound I-222], the “D activity at 1 μM (%)” value is “+++ (+++ is >60%)”.

The assay is the same for the next values; noted with them: with 44 nM potentiator and 18 μM Tezacaftor, 20% human serum.
Regarding `COc1c2nc(nc1-c1c(C)cccc1C)NS(=O)(=O)c1cccc(c1)C(=O)N(Cc1cnc3oc(C(C)(C)C)cc3n1)[C@H](CC1(C)CC1)CO2` [IV-12], the “D act. at 1 μM (%)” value is listed as “+++ (+++ is >60%)”.
Regarding `Cc1cccc(C)c1-c1cc2nc(n1)NS(=O)(=O)c1cccc(c1)C(=O)N(Cc1cnc3oc(C4CCOCC4)cc3n1)[C@H](CC1(C)CC1)CO2` [IV-27], the “D act. at 1 μM (%)” value was “+++ (+++ is >60%)”.
With `Cc1cccc(C)c1-c1cc2nc(n1)NS(=O)(=O)c1cccc(c1)C(=O)N(Cc1cnc3oc(C4(C)CC4)cc3n1)[C@@H](C(C(C)C)C(C)C)CO2` (stereo in doubt) [IV-31], the “D act. at 1 μM (%)” value is given as “+++ (+++ is >60%)”.
As to `Cc1cccc(CC(C)C)c1-c1nc2nc(c1C)OC[C@@H](CC1(C)CC1)N(Cc1cnc3oc(C(C)(C)C)cc3n1)C(=O)c1cccc(c1)S(=O)(=O)N2` (atropisomer, axis not shown) [IV-45], the “D act. at 1 μM (%)” value is “+++ (+++ is >60%)”.
On the same count and under the same terms, in the case of `Cc1cccc(C)c1-c1cc2nc(n1)NS(=O)(=O)c1cccc(c1)C(=O)N(Cc1cnc3oc(-c4ccnn4C)cc3n1)[C@H](CC1(C)CC1)CO2` [IV-30] it was “+++ (+++ is >60%)”; in that of `Cc1cccc(C)c1-c1cc2nc(n1)NS(=O)(=O)c1cccc(c1)C(=O)N(Cc1cnc3oc(C(C)(C)C)cc3n1)[C@@H](C(C1CCC1)C1CCC1)CO2` [IV-33], “+++ (+++ is >60%)”; in that of `Cc1cccc(CC(C)C)c1-c1nc2nc(c1C)OC[C@@H](CC1(C)CC1)N(Cc1cnc3cc(C(C)(C)C)n(C)c3n1)C(=O)c1cccc(c1)S(=O)(=O)N2` (atropisomer, axis not shown) [IV-44], “+++ (+++ is >60%)”.
On to `Cc1cccc(CC(C)C)c1-c1nc2nc(c1C)OC[C@@H](CC1(C)CC1)N(Cc1cnc3oc(C(C)C)cc3n1)C(=O)c1cccc(c1)S(=O)(=O)N2` (atropisomer, axis not shown) [IV-46], for which the “D act. at 1 μM (%)” value is recorded as “+++ (+++ is >60%)”.
For `CCC(C)(C)C[C@H]1COc2cc(-c3c(C)cccc3C)nc(n2)NS(=O)(=O)c2cccc(c2)C(=O)N1Cc1cnc2oc(C3CC3)cc2n1` [IV-34], the “D act. at 1 μM (%)” value is given as “+++ (+++ is >60%)”.
On the same count and under the same terms, the same measure for `Cc1cccc(COC(C)C)c1-c1nc2nc(c1C)OC[C@@H](CC(C)(C)C)N(Cc1cnc3oc(C4CC4)cc3n1)C(=O)c1cccc(c1)S(=O)(=O)N2` [IV-39]: “+++ (+++ is >60%)”.
As for `COc1c2nc(nc1-c1c(C)cccc1C)NS(=O)(=O)c1cccc(c1)C(=O)N(Cc1cnc3cc(C4(C)CC4)n(C)c3n1)[C@H](COC(C)C)CO2` [IV-11], the “D act. at 1 μM (%)” value was “+++ (+++ is >60%)”.
`Cc1cccc(CC(C)C)c1-c1nc2nc(c1C)OC[C@@H](CC(C)(C)C)N(Cc1cnc3cc(C4(C)CC4)n(C)c3n1)C(=O)c1cccc(c1)S(=O)(=O)N2` (atropisomer, axis not shown) [IV-19]: the “D act. at 1 μM (%)” value is listed as “+++ (+++ is >60%)”.
Take `Cc1cccc(C)c1-c1cc2nc(n1)NS(=O)(=O)c1cccc(c1)C(=O)N(Cc1ncc3cc(C(C)(C)C)n(C)c3n1)[C@H](CC(C)(C)C)CO2` [IV-38]: the “D act. at 1 μM (%)” value is on record as “+++ (+++ is >60%)”.

The values are drawn from patent US20250340574A1, “MODULATORS OF CYSTIC FIBROSIS TRANSMEMBRANE CONDUCTANCE REGULATOR” (Vertex Pharmaceuticals Incorporated, priority 2022, published 2025).
